Measurements published in patent US11000627B2, “Treatment of implants with phosphonic acid compounds” (Nano Bridging Molecules SA, priority 2016, dated 2021).
Like-named read-outs stand apart in the source and are kept apart here. Marks after values point to notes of the source that are not given here.

Tests used:
Assay type in all cases: physicochemical
[1] = XPS phosphorus over metal ratio on Titanium grade 4 cylinders
Description: XPS analyses were performed on an Axis Ultra spectrometer from Kratos (Kratos, Manchester, U.K.) equipped with a concentric hemispherical analyzer and using a monochromatized aluminum anode X-ray source (Al Kα1,2 1486.6 eV, full width at half maximum, fwhm=0.85 eV, 15 kV, 150 W). The samples were investigated under ultrahigh vacuum conditions: 10^−8-10^−7 Pa. Spectra were taken at a 90° takeoff angle with respect to the surface. A sample area of 300×700 μm^2 or 700×700 μm^2 was analyzed with a pass energy of 80.0 eV for survey scans. The spectrometer was calibrated by using Cu 2p3/2 (932.7 eV) and Au 4f7/2 (84.0 eV) signals. Surface sensitivity factors used to determine the atomic concentrations were those of the instrument. Spectra were peak fitted after background subtraction by assuming a Gaussian/Lorentzian (90-70/10-30) peak shape. All peaks between 0 eV to 1200 eV were inspected.
Two Titanium grade 4 cylinders (bulk composition atomic concentration Titanium 100%; length 6.0 mm, diameter 2.4 mm) were provided with a roughened surface, produced by sand blasting and acid etching according to industry standards. The cylinders were immersed in 6 ml of a 2% (v/v) aqueous solution of deconex 15 PF-x (which is a phosphate free, potassium hydroxide based standard cleaning agent). The solution was placed in an ultrasonic bath (output frequency 30 kHz) and sonicated at 65° C. for 15 min. The cylinders were removed from the cleaning agent solution and rinsed with water as follows: 2 times with 10 ml, swirling at room temperature; 4 times with 10 ml, sonicating for 2 min at 65° C.; 1 time with 10 ml, swirling at room temperature. The cylinders were then placed into 6 ml of a 0.7 mM aqueous solution of 1,1,3,3-propane tetraphosphonic acid. The solution was placed in the ultrasonic bath and sonicated at 65° C. for 15 min. The cylinders were rinsed with water as follows: 2 times with 10 ml, swirling at room temperature; 1 time with 10 ml, sonicating for 2 min at 65° C.; 1 time with 10 ml, swirling at room temperature. The cylinders were dried in a desiccator over P2O5 and under vacuum (ca 20 mbar) for at least 3 hours.
Two Titanium grade 4 cylinders (bulk composition atomic concentration Titanium 100%; length 6.0 mm, diameter 2.4 mm) were provided with a roughened surface, produced by sand blasting and acid etching according to industry standards. The cylinders were immersed in 6 ml of a 2% (v/v) aqueous solution of deconex 15 PF-x (which is a phosphate free, potassium hydroxide based standard cleaning agent). The solution was placed in an ultrasonic bath (output frequency 30 kHz) and sonicated at room temperature for 15 min. The cylinders were removed from the cleaning agent solution and rinsed with water as follows: 2 times with 10 ml, swirling at room temperature; 4 times with 10 ml, sonicating for 2 min at room temperature; 1 time with 10 ml, swirling at room temperature. The cylinders were then placed into 6 ml of a 0.7 mM aqueous solution of 1,1,3,3-propane tetraphosphonic acid. The solution was swirled thoroughly and left to stand at room temperature for 15 min. The cylinders were rinsed with water as follows: 2 times with 10 ml, swirling at room temperature; 1 time with 10 ml, sonicating for 2 min at room temperature; 1 time with 10 ml, swirling at room temperature. The cylinders were dried in a desiccator over P2O5 and under vacuum (ca 20 mbar) for at least 3 hours.

[2] = XPS phosphorus over metal ratio on Titanium grade 5 dental implant (prospective data); conditions: room temperature comparative process
[3] = as above; conditions: 0.5 mM, sonicated 65° C. 10 min, Metal = Ti2p + Al2s + V2p
Description: A Titanium grade 5 dental implant (bulk composition atomic concentration Titanium 90%, Aluminum 6%, Vanadium 4%; length 11.0 mm, diameter 3.75 mm) is provided with a roughened surface, produced by sand blasting and acid etching according to industry standards. The dental implant is immersed in 30 ml of a 2% (v/v) aqueous solution of deconex 15 PF-x (which is a phosphate free, potassium hydroxide based standard cleaning agent). The solution is placed in an ultrasonic bath (output frequency 30 kHz) and sonicated at 65° C. for 15 min. The implant is removed from the cleaning agent solution and rinsed with water as follows: 2 times with 30 ml, swirling at room temperature; 4 times with 30 ml, sonicating for 2 min at 65° C.; 1 time with 30 ml, swirling at room temperature. […] The solution is placed in the ultrasonic bath and sonicated at 65° C. for 10 min. The implant is rinsed with water as follows: 2 times with 10 ml, swirling at room temperature; 1 time with 10 ml, sonicating for 2 min at 65° C.; 1 time with 10 ml, swirling at room temperature. The dental implant is dried in a desiccator over P2O5 and under vacuum (ca 20 mbar) for at least 3 hours. The samples are analyzed by X-ray photoelectron spectroscopy (XPS). Same analysis conditions as described in Example 8 are used.

[4] = Concentration 2 mM, sonicated 65° C. 15 min, Metal = Ti2p

O=P(O)(O)CP(=O)(O)O [Methylene-1,1-diphosphonic acid]
Phosphorus/Metal [1]: 0.10^b

O=P(O)(O)CCCP(=O)(O)O [PA-2, propane-1,3-diphosphonic acid]
Phosphorus/Metal (surface treatment as described in Comp. Example 6) [2]: 0.05-0.11
Phosphorus/Metal (surface treatment as described herein above) [3]: 0.16-0.20

CC(C)(C)P(=O)(O)O [PA-3, tert-butyl phosphonic acid]
Phosphorus/Metal (surface treatment as described in Comp. Example 6) [2]: 0.05-0.11
Phosphorus/Metal [1, 4]: 0.02^b
Phosphorus/Metal (surface treatment as described herein above) [3]: 0.16-0.20

C=CCP(=O)(O)O [PA-4, 1-propene-3-phosphonic acid]
Phosphorus/Metal (surface treatment as described in Comp. Example 6) [2]: 0.05-0.11
Phosphorus/Metal (surface treatment as described herein above) [3]: 0.16-0.20

O=P(O)(O)C1CCCCC1 [PA-5, 1-cyclohexyl phosphonic acid]
Phosphorus/Metal (surface treatment as described in Comp. Example 6) [2]: 0.05-0.11
Phosphorus/Metal (surface treatment as described herein above) [3]: 0.16-0.20

O=P(O)(O)c1ccccc1 [PA-6, phenyl-1-phosphonic acid]
Phosphorus/Metal (surface treatment as described in Comp. Example 6) [2]: 0.05-0.11
Phosphorus/Metal [1, 4]: 0.03^b
Phosphorus/Metal (surface treatment as described herein above) [3]: 0.16-0.20

NC(CP(=O)(O)O)C(=O)O (centres unmarked) [PA-8, 2-amino-3-phosphonopropionic acid]
Phosphorus/Metal (surface treatment as described in Comp. Example 6) [2]: 0.05-0.11
Phosphorus/Metal (surface treatment as described herein above) [3]: 0.16-0.20

O=C(CP(=O)(O)O)Oc1ccccc1C(=O)O [PA-9, 2-(2-phosphonoacetoxy)benzoic acid]
Phosphorus/Metal (surface treatment as described in Comp. Example 6) [2]: 0.05-0.11
Phosphorus/Metal (surface treatment as described herein above) [3]: 0.16-0.20

CC(O)(P(=O)(O)O)P(=O)(O)O [PA-10, etidronic acid, reference compound]
Phosphorus/Metal (surface treatment as described in Comp. Example 6) [2]: 0.05-0.11
Phosphorus/Metal ([1]; Concentration 1 mM, sonicated 65° C. 15 min, Metal = Ti2p): 0.09^b
Phosphorus/Metal (surface treatment as described herein above) [3]: 0.16-0.20
